According to patent US20240117005A1, “NOVEL BICYCLIC PEPTIDES” (THE COUNCIL OF THE QUEENSLAND INSTITUTE OF MEDICAL RESEARCH, priority 2021, published 2024):
“Also recorded” adds a separate entry of the source. No end group written: not given here. *: point of attachment. Myristyl = CCCCCCCCCCCCCC*

Legend:
Format in all cases: cell-based
[1] = target: T1, complex of PDL1-PTM1 and IMPα1 (Homo sapiens, UniProt P52292); assay: DUOLINK proximity assay PDL1-PTM1 (PDL1-Ac) and IMPα1, MDA-MB-231; settings: for complex of PDL1-PTM1 and IMPα1 (DUOLINK): MDA-MB-231
T1 construct: endogenous in cells; host or cells: MDA-MB-231
Procedure: MDA-MB-231 cells were treated with DL-2; with concentrations ranging from 10 μM to 0.00975 μM. MDA-MB-231 cells were treated with DL-2 or Control and were permeabilized and were probed with the DUOLINK ligation assay. Cover slips were mounted on glass microscope slides with Prolong nucleus glass Antifade reagent (Life Technologies). PDL1-Ac and IMPα1 DUOLINK Digital images were analyzed using ImageJ software (ImageJ, NIH, Bethesda, MD, USA) and graphs represent the mean DOT Fluorescent Intensity in the nucleus or the cytoplasm compartments with significant differences calculated as per Kruskal-Wallis one-way ANOVA.
MDA-MB-231 of were treated with vehicle control, DL-2-Batch 1, DL-2-Batch 2, or linear PDL1 peptide. Cells were permeabilised and were probed with the DUOLINK ligation assay. Cover slips were mounted on glass microscope slides with Prolong nucleus glass Antifade reagent (Life Technologies). PDL1Ac and IMPα1 DUOLINK Digital images were analysed using ImageJ software (ImageJ, NIH, Bethesda, MD, USA) and graphs represent the mean DOT Fluorescent Intensity in the nucleus or the cytoplasm compartments with significant differences calculated as per One-Way ANOVA comparison.
(A) CT26, 4T1 or MDA-MB-231 Cells were treated with inhibitors for 72 hours. Following inhibition, media was removed and replaced with WST-1 cell proliferation reagent. Absorbance was recorded at 450 nm after 1 hour. Data represent a single independent experiment performed in triplicate. Results are graphed as mean +/− standard error (SE). […] PDL1Ac and IMPα1 DUOLINK Digital images were analysed using ImageJ software (ImageJ, NIH, Bethesda, MD, USA) and graphs represent the mean DOT Fluorescent Intensity in the nucleus or the cytoplasm compartments with significant differences calculated as per one-way ANOVA comparison. […] PDL1-unmodified and IMPα1 DUOLINK digital images were analysed using ImageJ software (ImageJ, NIH, Bethesda, MD, USA) and graphs represent the mean DOT fluorescent intensity in the nucleus or the cytoplasm compartments with significant differences calculated as per one-way ANOVA comparison. […]

[2] = target: T2, complex of PDL1 (unmodified) and IMPα1 (Homo sapiens, UniProt P52292); assay: DUOLINK proximity assay PDL1 (unmodified) and IMPα1, MDA-MB-231; settings: for complex of PDL1 (unmodified) and IMPα1 (DUOLINK): MDA-MB-231
T2 construct: endogenous in cells; host or cells: MDA-MB-231
Procedure: To characterize unmodified PDL1 and IMPα1, MDA-MB-231 cells or CT26 cells were treated with vehicle control, DL-2-batch 1, DL-2-batch 2 or linear PDL1. Cells were permeabilised and were probed with the DUOLINK ligation assay. Cover slips were mounted on glass microscope slides with ProLong nucblue glass Antifade reagent (Life Technologies). PDL1 (unmodified) and IMPα1 DUOLINK Digital images were analysed using ImageJ software (ImageJ, NIH, Bethesda, MD, USA) and graphs represent the mean DOT Fluorescent Intensity in the nucleus or the cytoplasm compartments with significant differences calculated as per One-Way ANOVA comparison.
(A) CT26, 4T1 or MDA-MB-231 Cells were treated with inhibitors for 72 hours. Following inhibition, media was removed and replaced with WST-1 cell proliferation reagent. Absorbance was recorded at 450 nm after 1 hour. Data represent a single independent experiment performed in triplicate. Results are graphed as mean +/− standard error (SE). B) MDA-MB-231 or CT26 cancer cells were treated with vehicle control, DL-2-Batch 1 (original stock), DL-2-Batch 2 (current stock), DL-2-TBAB or linear PDL1. Cells were permeabilised and were probed with the DUOLINK ligation assay. Cover slips were mounted on glass microscope slides with ProLong nucblue glass Antifade reagent (Life Technologies). PDL1Ac and IMPα1 DUOLINK Digital images were analysed using ImageJ software (ImageJ, NIH, Bethesda, MD, USA) and graphs represent the mean DOT Fluorescent Intensity in the nucleus or the cytoplasm compartments with significant differences calculated as per one-way ANOVA comparison. […] PDL1-unmodified and IMPα1 DUOLINK digital images were analysed using ImageJ software (ImageJ, NIH, Bethesda, MD, USA) and graphs represent the mean DOT fluorescent intensity in the nucleus or the cytoplasm compartments with significant differences calculated as per one-way ANOVA comparison.
MDA-MB-231 and CT26 cells were treated with vehicle control, DL-2-Batch 1, DL-2-Batch 2, DL-2-TBAB (TBAB scaffold), DL-2-D (D-Isomer) or linear PDL1. […] PDL1 (unmodified) and IMPα1 and PDL1-PTM1 and IMPα1 DUOLINK digital images were analysed using ImageJ software (ImageJ, NIH, Bethesda, MD, USA) and graphs represent the mean DOT Fluorescent Intensity in the nucleus or the cytoplasm compartments with significant differences calculated as per One-Way ANOVA comparison. […]
MDA-MB-231 cells were treated with vehicle control (hollow nanoparticle), DL-2-NP at a concentration of 10 nM to 0.3 nM. […] PDL1 (unmodified) & IMPα1 DUOLINK digital images were analysed using ImageJ software (ImageJ, NIH, Bethesda, MD, USA) and graphs represent the mean DOT Fluorescent Intensity in the nucleus or the cytoplasm compartments with significant differences calculated as per One-WayANOVA comparison.

[3] = target: T3, complex of PDL1-PTM1 and IMPα1 (Mus musculus, UniProt P52293); assay: DUOLINK proximity assay PDL1-PTM1 and IMPα1, CT26
T3 construct: endogenous in cells; host or cells: CT26
Procedure: (A) CT26, 4T1 or MDA-MB-231 Cells were treated with inhibitors for 72 hours. Following inhibition, media was removed and replaced with WST-1 cell proliferation reagent. Absorbance was recorded at 450 nm after 1 hour. Data represent a single independent experiment performed in triplicate. Results are graphed as mean +/− standard error (SE). B) MDA-MB-231 or CT26 cancer cells were treated with vehicle control, DL-2-Batch 1 (original stock), DL-2-Batch 2 (current stock), DL-2-TBAB or linear PDL1. Cells were permeabilised and were probed with the DUOLINK ligation assay. Cover slips were mounted on glass microscope slides with ProLong nucblue glass Antifade reagent (Life Technologies). PDL1Ac and IMPα1 DUOLINK Digital images were analysed using ImageJ software (ImageJ, NIH, Bethesda, MD, USA) and graphs represent the mean DOT Fluorescent Intensity in the nucleus or the cytoplasm compartments with significant differences calculated as per one-way ANOVA comparison. […] PDL1-unmodified and IMPα1 DUOLINK digital images were analysed using ImageJ software (ImageJ, NIH, Bethesda, MD, USA) and graphs represent the mean DOT fluorescent intensity in the nucleus or the cytoplasm compartments with significant differences calculated as per one-way ANOVA comparison. […]

Compound | complex of PDL1-PTM1 and IMPα1 (DUOLINK) [1] | IC50 ([1]; MDA-MB-231, 10 μM to 0.00975 μM) [nM] | complex of PDL1 (unmodified) and IMPα1 (DUOLINK) [2] | IC50 ([2]; MDA-MB-231, DUOLINK, read-out: IC50 for abrogating the PDL1 and IMPα1 complex) [nM] | complex of PDL1-PTM1 and IMPα1 (DUOLINK) [3] | complex of PDL1 (unmodified) and IMPα1 (DUOLINK) ([2]; listed as linear PDL1 peptide)
CCCCCCCCCCCCCC(=O)NC(C)C(=O)NC1CSCc2cc3cc(c2)CSC[C@H](NC(=O)[C@H](Cc2ccccc2)NC(=O)[C@H](C(C)CC)NC(=O)[C@H](Cc2ccccc2)NC(=O)[C@H]([C@@H](C)O)NC(=O)C(CC(C)C)NC1=O)C(=O)N[C@@H](CCCNC(C)=N)C(=O)N[C@@H](CC(C)C)C(=O)N[C@@H](CCCNC(=N)N)C(=O)N[C@@H](CCCCN)C(=O)NCC(=O)N[C@@H](CCCNC(=N)N)C(=O)NC(C(=O)N[C@@H](CCSC)C(=O)NC(CCSC)C(=O)N[C@@H](CC(=O)O)C(=O)NC(C(=O)N[C@@H](CCCCN)C(=O)NC(CCCCN)C(=O)O)C(C)C)CSC3 (mixture of isomers) [DL-2] | abrogate the complex of PDL1 and IMPα1 in a dose dependent manner; also recorded: able to abrogate the complex | 39 | able to abrogate the complex | 39 | able to successfully abrogate the complex | –
LTFIFRLRKGRMMDVKK (Myristyl-LTFIFRLRKGRMMDVKK) [PDL1-L1, Myristyl- linear peptide, prototype] | unable to significantly prevent the complex; also recorded: no change | – | unable to significantly impact the complex; also recorded: no change | – | no change | unable to significantly inhibit this complex
